According to ChEMBL document CHEMBL1641486, “Synthesis of 3'-azido-3'-deoxythymidine (AZT)--Cinchona alkaloid conjugates via click chemistry: Toward novel fluorescent markers and cytostatic agents” (2011):
Values after ≈ are worked out from the molar mass of the structure shown.

Test system: KB
Test: Cytotoxicity against human KB cells assessed as inhibition of protein biosynthesis
Type: functional
Details: read-out: ED50 (the source's name)

`COc1ccc2nccc([C@@H](O)[C@@H]3CC4CCN3CC4c3cn([C@H]4C[C@H](n5cc(C)c(=O)[nH]c5=O)O[C@@H]4CO)nn3)c2c1` (some centres undefined) was tested, and the EC50 was 1.3 µg/mL (≈ 2.2 µM).
`COc1ccc2nccc([C@H](O)[C@H]3CC4CCN3CC4c3cn([C@H]4C[C@H](n5cc(C)c(=O)[nH]c5=O)O[C@@H]4CO)nn3)c2c1` (some centres undefined) gave an EC50 of 12 µg/mL (≈ 20.4 µM).
In the case of `Cc1cn([C@H]2C[C@H](n3cc(C4CN5CCC4C[C@H]5[C@H](O)c4ccnc5ccccc45)nn3)[C@@H](CO)O2)c(=O)[nH]c1=O` (some centres undefined), the EC50 is reported as 11.6 µg/mL (≈ 20.7 µM).
`Cc1cn([C@H]2C[C@H](n3cc(C4CN5CCC4C[C@@H]5[C@@H](O)c4ccnc5ccccc45)nn3)[C@@H](CO)O2)c(=O)[nH]c1=O` (some centres undefined) gave an EC50 of 21 µg/mL (≈ 37.5 µM).
`C=CC1CN2CCC1C[C@H]2[C@H](OCc1cn([C@H]2C[C@H](n3cc(C)c(=O)[nH]c3=O)O[C@@H]2CO)nn1)c1ccnc2ccc(OC)cc12` (some centres undefined) gave an EC50 of 2.1 µg/mL (≈ 3.33 µM).
`C=CC1CN2CCC1C[C@@H]2[C@@H](OCc1cn([C@H]2C[C@H](n3cc(C)c(=O)[nH]c3=O)O[C@@H]2CO)nn1)c1ccnc2ccc(OC)cc12` (some centres undefined) gave an EC50 of 3.9 µg/mL (≈ 6.19 µM).
Work on `C=CC1CN2CCC1C[C@H]2[C@H](OCc1cn([C@H]2C[C@H](n3cc(C)c(=O)[nH]c3=O)O[C@@H]2CO)nn1)c1ccnc2ccccc12` (some centres undefined) yielded an EC50 of over 100 µg/mL.
For `C=CC1CN2CCC1C[C@@H]2[C@@H](OCc1cn([C@H]2C[C@H](n3cc(C)c(=O)[nH]c3=O)O[C@@H]2CO)nn1)c1ccnc2ccccc12` (some centres undefined), the EC50 was over 100 µg/mL.
`Nc1ccn([C@@H]2O[C@H](CO)[C@@H](O)[C@@H]2O)c(=O)n1` [CYTARABINE] was tested, and the EC50 was 0.99 µg/mL (≈ 4.07 µM).
